The target of this assay is Gag-Pol polyprotein (Human immunodeficiency virus type 1 group M subtype B (isolate HXB2), UniProt P04585). Put plainly: HIV-1 RT Activity Assay. The note with it: pH 7.8; 37 °C. As for the experimental part: HIV-1 Reverse Transcriptase Activity was measured using the colorimetric photometric immunoassay kit provided by Roche. Estimation of RT activity is achieved by quantification of the DNA synthesized by RT in a known period of time. Incubation was performed for 2 h at 37°C. PolyA:oligodT RNA template:primer hybrid at a concentration of 2.2 μg/ml was incubated with 20 nMof purified recombinant HIV-1 reverse transcriptase in a 50 μL incubation mixture containing 50 mM Tris-HCl pH 7.8, 160 mM KCl, 11 mM MgCl2, 5.3 mM DTT, 0.5 mM EDTA, 0.3% Triton-X 100 and 10 μM dTTP (unless otherwise mentioned) in the presence of digoxigeninconjugated dUTP (dUTP-DIG) and biotin-conjugateddUTP (dUTP-biotin). In a following step, the synthesised biotin-DIG-labelled DNA was bound to the surface of streptavidin-coated ELISA-plate wells. After washing out the unbound material, an antibody to digoxigenin, conjugated to peroxidase (anti-DIG-POD), was added and bound to the digoxigenin-labelled nucleotides. After a washing step and addition of the appropriate substrate, peroxidase catalyzed the transformation of the substrate, ABTS, to a yellow coloured reaction product. 15 min after ABTS addition, the coloured product was measured using a microtitre plate (ELISA) reader. For the estimation of inhibitory action of the compounds, reverse transcriptase was incubated in the presence of the potential inhibitor for 45 min at room temperature before addition of its substrates (pre-incubation).

Molecules are shown by their SMILES.

Turning to `COc1cccc2sc(N3C(=O)CSC3c3c(F)cccc3Cl)nc12` (stereo not given) [3-(4-Methoxybenzo[d]thiazol-2-yl)-2-(2-chloro-6-fluorophenyl)thiazolidin-4-one (16)], the IC50 (as a rule, the concentration that gives 50% inhibition) was more than 40 µM.

Take `O=C1CSC(c2c(Cl)cccc2Cl)N1c1nc2ccc(F)cc2s1` (stereo not given) [3-(6-Fluorobenzo[d]thiazol-2-yl)-2-(2,6-dichlorophenyl)thiazolidin-4-one (9)]: the IC50 is 0.25 µM.

Compound `COc1ccc2nc(N3C(=O)CSC3c3c(F)cccc3F)sc2c1` (stereo not given) [3-(6-Methoxybenzo[d]thiazol-2-yl)-2-(2,6-difluorophenyl)thiazolidin-4-one (14)] yielded an IC50 of more than 40 µM.

Compound `COc1cccc2sc(N3C(=O)CSC3c3c(Cl)cccc3Cl)nc12` (stereo not given) [3-(4-Methoxybenzo[d]thiazol-2-yl)-2-(2,6-dichlorophenyl)thiazolidin-4-one (15)] returned an IC50 of 3 µM.

In turn, `O=C1CSC(c2c(Cl)cccc2Cl)N1c1nc2c(Cl)cccc2s1` (stereo not given) [3-(4-Chlorobenzo[d]thiazol-2-yl)-2-(2,6-dichlorophenyl)thiazolidin-4-one (6)] came in with an IC50 of more than 40 µM.

In the case of `O=C1CSC(c2c(F)cccc2F)N1c1nc2ccccc2s1` (stereo not given) [3-(Benzo[d]thiazol-2-yl)-2-(2,6-difluorophenyl)thiazolidin-4-one (1)], the IC50 is more than 40 µM.

Turning to `CCOc1ccc2nc(N3C(=O)CSC3c3c(F)cccc3Cl)sc2c1` (stereo not given) [3-(6-Ethoxybenzo[d]thiazol-2-yl)-2-(2-chloro-6-fluorophenyl)thiazolidin-4-one (18)], the IC50 was found to be 3.4 µM.

For `CCOc1ccc2nc(N3C(=O)CSC3c3c(F)cccc3F)sc2c1` (stereo not given) [3-(6-Ethoxybenzo[d]thiazol-2-yl)-2-(2,6-difluorophenyl)thiazolidin-4-one (19)], the IC50 was more than 40 µM.

`O=C1CSC(c2c(F)cccc2Cl)N1c1nc2ccccc2s1` (stereo not given) [3-(Benzo[d]thiazol-2-yl)-2-(2-chloro-6-fluorophenyl)thiazolidin-4-one (2)]: the IC50 was more than 40 µM.

With `O=C1CSC(c2c(Cl)cccc2Cl)N1c1nc2ccc(Cl)cc2s1` (stereo not given) [3-(6-Chlorobenzo[d]thiazol-2-yl)-2-(2,6-dichlorophenyl)thiazolidin-4-one (3)], the IC50 was more than 40 µM.

For `O=C1CSC(c2c(F)cccc2Cl)N1c1nc2ccc(Cl)cc2s1` (stereo not given) [3-(6-Chlorobenzo[d]thiazol-2-yl)-2-(2-chloro-6-fluorophenyl)thiazolidin-4-one (4)], the IC50 was more than 40 µM.

`COc1ccc2nc(N3C(=O)CSC3c3c(Cl)cccc3Cl)sc2c1` (stereo not given) [3-(6-Methoxybenzo[d]thiazol-2-yl)-2-(2,6-dichlorophenyl)thiazolidin-4-one (12)] returned an IC50 of more than 40 µM.

Consider `O=C1CSC(c2c(F)cccc2F)N1c1nc2c(Cl)cccc2s1` (stereo not given) [3-(4-Chlorobenzo[d]thiazol-2-yl)-2-(2,6-difluorophenyl)thiazolidin-4-one (8)], for which the IC50 is more than 40 µM.

In turn, `O=C1CSC(c2c(F)cccc2Cl)N1c1nc2c(Cl)cccc2s1` (stereo not given) [3-(4-Chlorobenzo[d]thiazol-2-yl)-2-(2-chloro-6-fluorophenyl)thiazolidin-4-one (7)] returned an IC50 of 0.04 µM.

`COc1ccc2nc(N3C(=O)CSC3c3c(F)cccc3Cl)sc2c1` (stereo not given) [3-(6-Methoxybenzo[d]thiazol-2-yl)-2-(2-chloro-6-fluorophenyl)thiazolidin-4-one (13)] registered an IC50 of more than 40 µM.
